Data from publication PMC12415213, “A genome-scale drug discovery pipeline uncovers therapeutic targets and a unique p97 allosteric binding site in Schistosoma mansoni” (Proceedings of the National Academy of Sciences of the …, 2025).
Entries after “also recorded” stand apart in the source; their conditions may differ. Where two headings read alike, the source gives them in different places.

Assays:
[1] = biological target: S. mansoni p97 (Smp_018240) (Schistosoma mansoni, UniProt G4M0P7); format: biochemical
Protocol: (§1) Evaluation of p97’s ATPase activity and compound potency
For manual ATP consumption assays, 1 µM p97 was incubated with 1% DMSO or inhibitor (1% DMSO final) in assay buffer [50 mM Tris (pH 7.5), 20 mM MgCl2, 1 mM EDTA, 0.5 mM tris(2-carboxyethyl)phosphine (TCEP)] for 5 minutes prior to the addition of 20 µM ATP in a 384-well plate for a total reaction volume of 10 µL, and a final concentration of 500nM enzyme and 10 µM ATP. The reaction was allowed to proceed for 50 minutes at room temperature before adding equivalent volume of Kinase-Glo Plus reagent (Promega), and a further incubation of 10 minutes in the dark. Luminescence was read using a BioTek Synergy 2 plate reader […]
1 μM, 500 nM, 100 nM, 50 nM, 10 nM, 5 nM, 1 nM, and 0 nM) in triplicate, maintaining a concentration of 1% […]
were calculated using GraphPad Prism. […]

[2] = biological target: T1, H. sapiens p97 (P55072) (Homo sapiens, UniProt P55072); experiment: Kinase-Glo ATP consumption assay, recombinant H. sapiens p97; format: biochemical; settings: recombinant Hsp97, Kinase-Glo, 100 μM to 1 nM; NA = no notable effect on the enzyme at tested concentrations; >100 = IC50 predicted above 100 μM or maximal inhibition not achieved
T1 construct: purified recombinant full-length (1-806aa) H; 6xHis (N); made in house; host or cells: E. coli BL21 (DE3)

[3] = tested on: S. mansoni vcp/p97 (Smp_018240); experiment: High-throughput screen of S. mansoni p97 (Kinase-Glo, single concentration); format: biochemical, Schistosoma mansoni; settings: for Screen Inhibition (%): 10 μM compound, normalized to CB-5083 control; for inhibition of S. mansoni p97 function in the screen: high-throughput screen, 10 μM
Protocol: as §1
For manual ATP consumption assays, 1 µM p97 was incubated with 1% DMSO or inhibitor (1% DMSO final) in assay buffer [50 mM Tris (pH 7.5), 20 mM MgCl2, 1 mM EDTA, 0.5 mM tris(2-carboxyethyl)phosphine (TCEP)] for 5 minutes prior to the addition of 20 µM ATP in a 384-well plate for a total reaction volume of 10 µL, and a final concentration of 500nM enzyme and 10 µM ATP. The reaction was allowed to proceed for 50 minutes at room temperature before adding equivalent volume of Kinase-Glo Plus reagent (Promega), and a further incubation of 10 minutes in the dark. […]
High-throughput screening (HTS) assay
Kinase-Glo (Promega, part K1214) was purchased from Promega. Microtiter plates (384 wells) were purchased from Perkin Elmer. All chemicals included in the UTSW library were sourced from commercial sources […]
TimTec (500)] or UT Southwestern chemists (https://www.utsouthwestern.edu/research/core-facilities/high- […]
throughput-screening/libraries/). […]
concentration of 10 µM (0.2% DMSO). Luminescence was read by EnVision multimode plate reader (Perkin-Elmer). Assay conditions were consistent between manual and high-throughput assays [10 µM ATP, 50 mM Tris (pH 7.5), 20 mM MgCl2, 1 mM EDTA, 0.5 mM tris(2-carboxyethyl)phosphine (TCEP)]. The plates were then incubated for 50 min at room temperature before addition of Kinase-Glo reagent and further incubation in the dark for 10 minutes before reading luminescence. […]
were obtained to determine activity of compounds on the enzyme. […]

[4] = tested on: adult S. mansoni; experiment: Single-concentration (10 μM) treatment of adult worms, attachment and morphology; format: cell-based, Schistosoma mansoni; settings: in vitro culture
Protocol: DMSO). All selected compounds were obtained from commercial vendors (Medchemexpress, Selleck Chemicals, Sigma-Aldrich, ApexBio, Tocris, Santa Cruz Biotechnology, and Cayman Chemical Company) (Dataset S4) with […]
the activity of the desired compounds. Roughly 5 adult worm pairs were placed in 3mL Basch medium in a 12-well culture vessel, and incubated at 37° C, 5% CO2 for the length of the experiment. Compound was administered at D0, D1, and D2, media and drug refreshed every 24 hr. Worms were then allowed to remain in culture until D5, where a final assessment of worm attachment to tissue culture substate was made by light microscopy.
Observations on movement and morphology were also recorded. A negative control (0.1% DMSO) and positive control (PZQ; 10 µM in 0.1% DMSO) were included in each experiment, and each experiment was repeated in triplicate for validation. […]

[5] = H. sapiens p97 IC50 versus S. mansoni p97 IC50

T1 sequence (P55072 whole entry): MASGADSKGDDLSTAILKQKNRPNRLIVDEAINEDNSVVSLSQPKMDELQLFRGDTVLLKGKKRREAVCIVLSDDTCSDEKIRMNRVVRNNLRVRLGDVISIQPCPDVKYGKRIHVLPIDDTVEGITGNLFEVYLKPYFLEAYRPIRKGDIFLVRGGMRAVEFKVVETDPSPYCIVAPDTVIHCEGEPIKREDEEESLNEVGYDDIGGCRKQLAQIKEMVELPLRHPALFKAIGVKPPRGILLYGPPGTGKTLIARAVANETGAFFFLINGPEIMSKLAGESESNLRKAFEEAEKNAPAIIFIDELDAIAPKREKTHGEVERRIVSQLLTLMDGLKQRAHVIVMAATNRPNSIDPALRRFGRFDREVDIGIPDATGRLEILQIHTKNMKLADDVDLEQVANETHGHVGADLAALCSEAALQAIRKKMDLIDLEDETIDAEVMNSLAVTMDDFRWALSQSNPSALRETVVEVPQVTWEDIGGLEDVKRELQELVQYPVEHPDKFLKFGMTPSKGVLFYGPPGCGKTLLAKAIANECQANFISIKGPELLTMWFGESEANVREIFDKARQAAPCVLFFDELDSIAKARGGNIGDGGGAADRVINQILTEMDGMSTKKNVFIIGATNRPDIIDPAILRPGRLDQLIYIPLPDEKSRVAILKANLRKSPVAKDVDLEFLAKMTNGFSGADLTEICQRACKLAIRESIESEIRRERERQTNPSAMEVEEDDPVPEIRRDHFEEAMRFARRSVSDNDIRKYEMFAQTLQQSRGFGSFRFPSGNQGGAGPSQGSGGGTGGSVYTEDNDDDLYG
S. mansoni p97 (Smp_018240), sequence (G4M0P7 entry or part of it): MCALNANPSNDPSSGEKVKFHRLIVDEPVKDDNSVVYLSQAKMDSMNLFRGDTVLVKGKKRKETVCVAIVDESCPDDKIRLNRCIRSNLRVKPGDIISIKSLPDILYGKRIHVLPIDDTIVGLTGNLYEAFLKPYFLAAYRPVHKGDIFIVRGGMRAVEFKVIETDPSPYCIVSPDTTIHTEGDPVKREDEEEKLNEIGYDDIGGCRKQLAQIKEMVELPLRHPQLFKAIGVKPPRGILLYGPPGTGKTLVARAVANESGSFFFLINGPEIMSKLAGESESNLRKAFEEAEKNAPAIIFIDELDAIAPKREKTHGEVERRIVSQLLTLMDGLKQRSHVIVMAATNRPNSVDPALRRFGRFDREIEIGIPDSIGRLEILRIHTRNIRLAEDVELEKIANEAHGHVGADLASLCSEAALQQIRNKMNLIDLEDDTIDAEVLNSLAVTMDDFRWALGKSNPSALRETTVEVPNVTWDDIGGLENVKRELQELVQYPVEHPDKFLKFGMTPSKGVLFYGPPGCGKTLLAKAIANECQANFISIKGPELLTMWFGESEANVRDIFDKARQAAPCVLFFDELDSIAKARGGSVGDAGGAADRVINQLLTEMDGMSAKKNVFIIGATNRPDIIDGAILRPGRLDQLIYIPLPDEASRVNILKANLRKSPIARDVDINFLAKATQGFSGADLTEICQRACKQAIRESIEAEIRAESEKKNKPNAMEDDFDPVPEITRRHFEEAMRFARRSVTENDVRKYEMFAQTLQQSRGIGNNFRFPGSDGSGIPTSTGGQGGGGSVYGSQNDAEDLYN

Compound: Cc1cccc(-c2nc3cc(NC(=O)C#Cc4ccncc4)ccc3o2)n1 [Compound 807]
- IC50 [1]: 670 ± 170 nM
- Fold Selectivity (parasite enzyme over human enzyme) [1, 5]: 0.70 fold
- IC50 [2]: 0.49 ± 0.057 µM

Compound: O=C(CCc1ccccc1)Nc1ccc2oc(-c3ccccn3)nc2c1 [Compound 326]
- Screen Inhibition (%) [3]: 2.2%
- inhibition of S. mansoni p97 function in the screen [3]: inactive

Compound: Cc1cccnc1-c1nc2cc(NC(=O)C#Cc3ccncc3)ccc2o1 [Compound 804]
- IC50 [1]: 190 ± 63 nM
- Fold Selectivity (parasite enzyme over human enzyme) [1, 5]: 0.70 fold
- IC50 [2]: 0.14 ± 0.062 µM

Compound: O=C(C#Cc1ccccc1)Nc1ccc2oc(-c3ccccn3)nc2c1 [Compound 243]
- Fold Selectivity (parasite enzyme over human enzyme) [1]: 9.5 fold
- IC50 [1]: 2100 ± 750 nM
- IC50 [2]: 20 ± 0.54 µM
- phenotype of adult worms after treatment [4]: led to death in adult parasites; also recorded: ultimately leading to their death
- Screen Inhibition (%) [3]: 46%

Compound: O=C(C#Cc1cccnc1)Nc1ccc2oc(-c3ccccn3)nc2c1 [Compound 738]
- IC50 [1]: 420 ± 57 nM
- Fold Selectivity (parasite enzyme over human enzyme) [1, 5]: 1.9 fold
- IC50 [2]: 0.78 ± 0.14 µM
- phenotype of adult worms after treatment [4]: death of the parasites

Compound: O=C(C#CC1CC1)Nc1ccc2oc(-c3ccccn3)nc2c1 [Compound 732]
- phenotype of adult worms after treatment [4]: still active on worms

Compound: O=C(C#Cc1cccc(Cl)c1)Nc1ccc2oc(-c3ccccn3)nc2c1 [Compound 735]
- IC50 [1]: 11000 ± 470 nM
- Fold Selectivity (parasite enzyme over human enzyme) [1, 5]: 0.70 fold
- IC50 [2]: 7.3 ± 0.66 µM
- phenotype of adult worms after treatment [4]: still active on worms

Compound: O=C(/C=C\c1ccccc1)Nc1ccc2oc(-c3ccccc3)nc2c1 [Compound 324]
- Screen Inhibition (%) [3]: 1.1%
- inhibition of S. mansoni p97 function in the screen [3]: inactive

Compound: O=C(C#Cc1ccccc1)Nc1ccc2oc(-c3cccnc3)nc2c1 [Compound 244]
- phenotype of adult worms after treatment [4]: did not have any adverse effects on worm health and survival
- Screen Inhibition (%) [3]: 16%

Compound: O=C(C=Cc1ccccc1)Nc1ccc2oc(-c3ccccc3)nc2c1 [Compound 135]
- Screen Inhibition (%) [3]: 1.1%
- inhibition of S. mansoni p97 function in the screen [3]: inactive

Compound: O=C(C#Cc1ccc(Cl)cc1)Nc1ccc2oc(-c3ccccn3)nc2c1 [Compound 736]
- IC50 [1]: 5900 ± 1300 nM
- Fold Selectivity (parasite enzyme over human enzyme) [1, 5]: 1.1 fold
- IC50 [2]: 6.7 ± 0.055 µM
- phenotype of adult worms after treatment [4]: decreased activity on the worms

Compound: O=C(C#Cc1ccccn1)Nc1ccc2oc(-c3ccccn3)nc2c1 [Compound 737]
- IC50 [1]: 3000 ± 410 nM
- Fold Selectivity (parasite enzyme over human enzyme) [1, 5]: 4.3 fold
- IC50 [2]: 13 ± 2.2 µM
- phenotype of adult worms after treatment [4]: decreased activity on the worms

Compound: Cc1ccc(-c2nc3cc(NC(=O)C#Cc4ccncc4)ccc3o2)nc1 [Compound 806]
- IC50 [1]: 470 ± 170 nM
- Fold Selectivity (parasite enzyme over human enzyme) [1, 5]: 1.1 fold
- IC50 [2]: 0.51 ± 0.16 µM

Compound: O=C(C#Cc1ccccc1)Nc1ccc2oc(-c3ccccc3)nc2c1 [Compound 245]
- IC50 [1]: 3800 ± 190 nM
- phenotype of adult worms after treatment [4]: did cause detachment, it did not lead to parasite death
- Screen Inhibition (%) [3]: 36%

Compound: Cc1ccnc(-c2nc3cc(NC(=O)C#Cc4ccncc4)ccc3o2)c1 [Compound 805]
- IC50 [1]: 170 ± 92 nM
- Fold Selectivity (parasite enzyme over human enzyme) [1, 5]: 0.80 fold
- IC50 [2]: 0.14 ± 0.078 µM

Compound: COc1ccc(C#CC(=O)Nc2ccc3oc(-c4ccccn4)nc3c2)cc1 [Compound 734]
- IC50 [1]: 48000 ± 2600 nM
- Fold Selectivity (parasite enzyme over human enzyme) [1, 5]: 1.7 fold
- IC50 [2]: 83 ± 6.5 µM
- phenotype of adult worms after treatment [4]: decreased activity on the worms
